# Test results: PMC4413647, “Simultaneous targeting of androgen receptor (AR) and MAPK-interacting kinases (MNKs) by novel retinamides inhibits growth of human prostate cancer cell lines” (Oncotarget, 2014)
# How the values were obtained:
# Bax, cleaved PARP-1 = assay: Western blot of Bax and cleaved PARP-1 in PCa cells; format: cell-based, human; details: 20 μM, 24 h, among the lead NRs
# Description: Figure 4 Effect of NRs on cell cycle and apoptosis (A) LNCaP cells treated with 5 μM of NRs and other compounds for 24 h were stained with PI and analysed with a FACS calibur flow cytometer. (B) Total cell lysates from PCa cells treated with 20 μM of NRs were separated by SDS-PAGE and probed with cyclin D1 and B antibodies. […] (C) LNCaP cells were treated with indicated compounds (5 μmol/L) for 24 h and apoptosis induction was examined by oligonucleosomal fragmentation. Data are shown relative to vehicle treated control and the bars are means of three replicate determinations plus standard deviations. *, P< 0.01; ♣, P<0.05 compared with vehicle treated control. (D) PCa cells as indicated were seeded in 24 well plate, and treated with 5 μmol/L of NRs the subsequent day. After 24 h the plates were analyzed for apoptotic and viable cells using acridine orange/ethidium bromide staining. (E) Western blot analysis of apoptosis associated Bax and cPARP in PCa cells treated with NRs (20 μmol/L) for 24 h. (F) Apoptosis induction in LNCaP cells treated with 5 μmol/L of VNLG-147 and -152 in the presence or absence of ZVAD (5 μmol/L) was assessed by oligonucleosomal fragmentation after 24 h incubation. *, P< 0.05 compared with vehicle treated control. […]
# PC-3 cells = assay: Boyden chamber matrigel invasion assay; format: cell-based, human; details: PC-3, 5 μM, 24 h
# Description: Figure 5 Anti-migratory and anti-invasive potential of NRs (A) Effect of NRs treatment (5 μmol/L) on PC-3 cell migration was assessed by wound healing assay after 24 h of wound formation. Representative photomicrographs of initial and final wounds are shown at 100x magnification. (B) Effect of NRs on PC-3 cell invasion was evaluated by transwell migration assay. PC-3 cells were seeded on matrigel coated boyden chamber and treated with NRs (5 μmol/L, 24 h). Photographs represent the extent of cell invasion in each of the treated cells. (C) Western blot analysis of the effect of NRs on the expression of cadherins in PC-3 cells. Cells were treated with indicated compound 20 μmol/L for 24 h.
# The invasion assay in PC-3 cells was performed using Matrigel (BD Biosciences, Bedford, MA, USA)-coated transwell cell culture chambers (8 μm pore size, EMD Millipore, Temecula, CA, USA) as described previously (43). Briefly, PC-3 cells (5 × 10^4 cells/well) were cultured in the upper chamber of the transwell insert for 24 h in serum-free RPMI-1640 medium. The cells were then treated with 5 μM of indicated compounds for 24 h. RPMI-1640 medium containing 10% FBS was placed in the lower chamber. At the end of incubation, the top surface of the non-migrated cells were scraped gently with cotton swabs and the cells on the lower surface of the membrane (migrated cells) were fixed for 15 min with cold methanol and stained with crystal violet. Cells that had migrated to the bottom of the membrane were visualized and counted using an inverted microscope. For each replicate (n = 3), cells in three randomly selected fields were counted and averaged.
compound,measurement,setting,value
CC1=C(/C=C/C(C)=C/C=C/C(C)=C/C(=O)Nc2ccc(F)cc2)C(C)(C)CCC1n1ccnc1 (racemic) [VNLG-152],efficacy in inducing PARP cleavage and/or increasing Bax expression,"Bax, cleaved PARP-1",greater efficacies
same,percentage of cell invasion compared to control,PC-3 cells,13
